In patent US7919488B2, “Therapeutic compounds” (Pfizer Inc., priority 2006, dated 2011) one finds Ki and IC50 data, which are given here for six compounds.

Assay type in all cases: biochemical
In assay [1] the target is T1, recombinant CYP3A4-b5 enzyme (Baculosomes®) (Homo sapiens, UniProt P08684).
T1 construct: purchased Invitrogen (Carlsbad, Calif.)
Description: Kiapp against recombinant CYP3A4 enzyme (Baculosomes), BFC substrate. The settings on record: recombinant CYP3A4-b5 (Invitrogen), 5 uM BFC, 200 uM NADPH, pre-incubation at least 30 minutes, pH 7.0, room temperature. In short, it runs like this:
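Recombinant CYP3A4-b5 Baculosomes were run in 100 mM sodium phosphate pH 7.0 with 5 mM TCEP and 2% DMF at room temperature, with ~30 min pre-incubation. The reaction was started with NADPH (200 uM) and BFC (5 uM), both final. Kiapp came from initial fluorescence velocities over the first 5 min across inhibitor concentrations.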

The target in assay [2] is T2, CYP3A4 (Homo sapiens, UniProt P08684).
T2 construct: 0.1 mg/mL human liver microsomes; from tissue; host or cells: human liver microsomes
T2 sequence (P08684 whole entry): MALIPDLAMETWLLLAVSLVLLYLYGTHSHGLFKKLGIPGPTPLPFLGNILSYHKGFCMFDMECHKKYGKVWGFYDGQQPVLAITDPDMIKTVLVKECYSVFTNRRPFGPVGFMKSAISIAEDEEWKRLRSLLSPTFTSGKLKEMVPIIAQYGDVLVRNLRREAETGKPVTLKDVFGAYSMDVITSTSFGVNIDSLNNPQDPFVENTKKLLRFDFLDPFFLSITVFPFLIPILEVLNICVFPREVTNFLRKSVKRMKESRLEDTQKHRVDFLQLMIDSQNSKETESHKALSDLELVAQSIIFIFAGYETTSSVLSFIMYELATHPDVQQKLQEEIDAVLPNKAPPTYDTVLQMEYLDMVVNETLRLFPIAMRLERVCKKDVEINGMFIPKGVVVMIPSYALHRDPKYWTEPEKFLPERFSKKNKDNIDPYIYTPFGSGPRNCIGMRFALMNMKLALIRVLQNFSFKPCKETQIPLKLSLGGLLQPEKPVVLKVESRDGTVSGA
Nature of the assay: IC50 against CYP3A4 by inhibition of midazolam metabolism in human liver microsomes. The settings on record: 0.1 mg/mL human liver microsomes, 2 μM midazolam, 1 mM NADPH, 1-hydroxymidazolam production, eight minutes; read-out: IC50, μM (HLM, midazolam). In short, it runs like this: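 Human liver microsomes (0.1 mg/mL) incubated 8 min with 2 μM midazolam and 1 mM NADPH in 100 mM potassium phosphate, pH 7.4. 1-Hydroxymidazolam quantified by LC-MS/MS (MRM) as peak area ratio to internal standard against a metabolite standard curve.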

Assay [3] deals with T3, recombinant CYP3A4+b5 enzyme (Supersomes®) (Homo sapiens, UniProt P08684).
T3 construct: purchased BD Biosciences (Woburn, Mass.)
T3 sequence (P08684 2-503 limits assumed): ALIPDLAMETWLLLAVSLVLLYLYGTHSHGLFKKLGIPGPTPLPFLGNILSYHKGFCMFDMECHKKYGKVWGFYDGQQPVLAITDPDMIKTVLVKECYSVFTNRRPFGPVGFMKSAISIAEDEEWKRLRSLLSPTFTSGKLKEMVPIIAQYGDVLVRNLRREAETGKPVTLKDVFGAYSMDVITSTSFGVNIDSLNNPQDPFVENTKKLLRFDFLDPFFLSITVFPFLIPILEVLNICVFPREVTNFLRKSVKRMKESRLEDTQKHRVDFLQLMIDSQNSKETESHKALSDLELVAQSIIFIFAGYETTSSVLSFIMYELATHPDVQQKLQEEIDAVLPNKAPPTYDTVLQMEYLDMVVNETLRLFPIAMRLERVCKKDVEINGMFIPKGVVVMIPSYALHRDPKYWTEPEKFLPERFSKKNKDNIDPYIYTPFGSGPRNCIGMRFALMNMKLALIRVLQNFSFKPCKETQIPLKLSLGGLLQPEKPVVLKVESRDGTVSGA
Nature of the assay: Kiapp against recombinant CYP3A4 enzyme (Supersomes), BFC substrate. The note with it: recombinant CYP3A4+b5 (BD Biosciences), 5 uM BFC, 200 uM NADPH, pre-incubation at least 30 minutes, pH 7.0, room temperature. The protocol:
1. Determination of Compound Kiapp
A determination of the Kiapp of the compounds of the invention against recombinant CYP3A4 enzyme was performed as follows. The assay was performed in a 100 mM sodium phosphate buffer pH 7.0, 5 mM TCEP and containing 2% dimethylformamide (final concentration) upon addition of substrate and inhibitor. A typical reaction for the determination of Kiapp values was carried at room temperature in a solid black Costar u-bottom 96-well polypropylene plate. In each well, recombinant CYP3A4 enzyme (5.5 nM or 8 nM, final concentration depending on the commercial source of the enzyme) was pre-incubated in the presence of the inhibitor for at least 30 minutes in the assay buffer. When pre-incubation was completed (˜30 min), the reaction was initiated by adding NADPH (200 uM, final concentration), and 7-benzyloxy-4-(trifluoromethyl)-coumarin (BFC) (5 uM, final concentration). The oxidation of the coumarin substrate was recorded by a 96-well plate reader POLARstar (BMG LABTECH, Offenburg, Germany).
The initial reaction velocities were measured during the first 5 min of the reaction when the release of the fluorescent product is linear with time, in the absence and in the presence of various concentrations of inhibitors. For non-partial & partial inhibitors, the Kiapp values were determined by using the equation for tight-binding inhibitor developed by Morrison, J F (Morrison J F. Biochim Biophys Acta. 1969, 185: 269-86) and by Szedlaseck S E et al. (Szedlascek, S. E., Ostafe, V., Serban, M., and Vlad, M. O. Biochem. J. 1988, 254:311-312), respectively.
The fluorescent substrate BFC was purchased from Sigma (St Louis, Mo.). Two commercial sources of recombinant enzymes were used in this study: recombinant CYP3A4-b5 enzyme (Baculosomes®) was purchased from Invitrogen (Carlsbad, Calif.) and the recombinant CYP3A4+b5 enzyme (Supersomes®) was purchased from BD Biosciences (Woburn, Mass.).

For assay [4], the target named is T2, CYP3A4. Description: IC50 against CYP3A4 by inhibition of testosterone metabolism in human liver microsomes. The note with it: 0.1 mg/mL human liver microsomes, 25 μM testosterone, 1 mM NADPH, 6-β-OH-testosterone production, eight minutes; read-out: IC50, μM (HLM, testosterone). In short, it runs like this:
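Testosterone used as substrate, incubated for eight minutes. 6-β-OH-testosterone formation quantified by LC-MS/MS (MRM) as peak area ratio to internal standard against a metabolite standard curve. IC50 derived from inhibition of this metabolism.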

Bounds are passed on as bounds.

T1 sequence (P08684 whole entry): as the sequence (P08684 whole entry) above

For the compound `CS(=O)(=O)C1CCN(C(=O)Cn2nc(-c3ccncc3)cc2Cc2ccc(F)cc2)C1` (stereo not drawn) [Example 132, 4-[5-(4-fluorobenzyl)-1-{2-[3-(methylsulfonyl)-pyrrolidin-1-yl]-2-oxoethyl}-1H-pyrazol-3-yl]pyridine], the Ki in assay [1] is 0.0996 µM; in assay [3], 0.0716 µM. Besides, the half-inhibitory concentration (IC50) is 0.023 µM at CYP3A4 [2] and 0.04 µM at CYP3A4 [4].
The corresponding values for `CC(C)(CN1CCOCC1)NC(=O)Cn1nc(-c2ccnnc2)cc1Cc1ccc(F)cc1` [Example 133, N-(1,1-dimethyl-2-morpholin-4-ylethyl)-2-[5-(4-fluorobenzyl)-3-pyridazin-4-yl-1H-pyrazol-1-yl]acetamide] are 0.21 µM, 0.174 µM, 0.083 µM and 0.044 µM.
In the case of `CC(=O)N1CCN(C(=O)Cn2nc(-c3ccncc3)cc2Cc2ccc(F)cc2)CC1` [Example 134, 1-acetyl-4-{[5-(4-fluorobenzyl)-3-pyridin-4-yl-1H-pyrazol-1-yl]acetyl}piperazine], the results for the Ki in assay [1] and in assay [3] were 0.131 µM and 0.0168 µM, respectively. Besides, the concentration for half-maximal inhibition (IC50) on CYP3A4 [2] is 0.0169 µM; at CYP3A4 [4], 0.051 µM.
The corresponding values for `CN(C(=O)Cn1nc(-c2ccncc2)cc1Cc1ccc(F)cc1)[C@H]1CC[C@@H](O)CC1` [Example 135, 2-[5-(4-fluorobenzyl)-3-pyridin-4-yl-1H-pyrazol-1-yl]-N-(cis-4-hydroxycyclohexyl)-N-methylacetamide] are 0.108 µM, 0.0358 µM, 0.00867 µM and 0.021 µM.
The like results for `O=C(Cn1nc(-c2ccncc2)cc1Cc1ccc(F)cc1)N1CCC(N2CCCCC2=O)CC1` [Example 136, 1′-{[5-(4-fluorobenzyl)-3-pyridin-4-yl-1H-pyrazol-1-yl]acetyl}-1,4′-bipiperidin-2-one] were, in that order, 0.0291 µM, 0.0119 µM, less than 0.00833 µM and 0.023 µM.
The like results for `O=C(Cn1nc(-c2ccncc2)cc1Cc1ccc(F)cc1)N1CCC(N2CCOCC2)CC1` [Example 137, 4-(1-{[5-(4-fluorobenzyl)-3-pyridin-4-yl-1H-pyrazol-1-yl]acetyl}piperidin-4-yl)morpholine] were, in that order, 0.0129 µM, 0.0036 µM, 0.0101 µM and 0.031 µM.
